Reference: patent publication US20190314361A1 (Athenex Therapeutics Limited, priority 2018, published 2019)
≈ marks a conversion by molar mass, not a printed value. Where “and” joins values, the source holds several entries; their conditions need not be identical. Equal values may be shown once. Read-outs that look alike come from different tables or passages of the source.

How the values were obtained:
[1] = test system: SKOV-3 ovarian human cancer cell line; conditions: NU/Nu Balb/C mice, paclitaxel alone 30 mg/kg IV, 1x weekly for 3 weeks
Method: (§1) In these studies, tumor inhibition rate (IR %) was calculated as ([1−relative tumor growth in treated group/relative tumor growth in control group]×100). Tumor regression was calculated as (Mean Tumor WeightEnd of treatment/Mean tumor WeightBeginning of treatment)×100. Therefore, a value <100% for tumor regression indicates a decrease in tumor weight over the course of the study and a value >100% indicates an increase in tumor weight. Tumor growth delay was calculated as the median number of days to reach two tumor mass doublings.

[2] = test system: HT-29 colon human cancer cell line; conditions: NU/Nu Balb/C mice
Method: as §1

[3] = test system: NCI-H460 lung human cancer cell line; conditions: Athymic nude mice, paclitaxel alone 24 mg/kg IV, every other day for 4 doses
Method: as §1

[4] = test system: SK-OV-3 ovarian human cancer cell line; conditions: NCr-nu (athymic) mice, paclitaxel alone 18 mg/kg IV, every other day for 4 doses
Method: as §1

[5] = test system: MDA-MB-231 mammary human cancer cell line; conditions: NCr-nu (athymic) mice, paclitaxel alone 18 mg/kg IV, every other day for 4 doses
Method: as §1

[6] = test system: A431 vaginal epidermoid human cancer cell line; conditions: NU/Nu Balb/C mice, paclitaxel alone 30 mg/kg IV, 1x weekly for 3 weeks
Method: as §1

[7] = test system: HMEC-1 cells; experiment: In vitro cytotoxicity (MTT) in HMEC-1 cells; type: cell-based, human; conditions: HMEC-1, 72 hours, Mean ± SD
Method: (§2) Three independent experiments of two replicates were completed. A 10 μL aliquot of 3-(4,5-dimethylthiazol-2-yl)-2,5-diphenyltetrazolium bromide (MTT) solution (5 mg/mL in PBS) was added to each well and incubated at 37° C. for 2 hours. The culture medium was removed followed by addition of 100 μL of DMSO to each well. The absorbance in each well was measured at 540 nm using a SpectraMax microplate reader. A sigmoid Emax model using nonlinear regression (Equation 1) with least squares fit was used to estimate Emax and GI50 values using GraphPad Prism 6 for each experiment:
(§3) The average Emax and GI50 values and standard deviated from three individual experiments were calculated and reported. R-squared of all curve fits exceeded 0.9.

[8] = dogs
[9] = human; for AUC0-24 / Cmax: range across dose levels, 2 consecutive daily oral doses
Method: A 2-part study was conducted in subjects with advanced/metastatic or recurrent gastric cancer. […] In some cases, an additional 15 mg tablet of Compound A on Day 2 was given in each dosing week. A total of 56 subjects enrolled in this study: 10 subjects with advanced malignant tumors in Part 1 and 46 subjects with advanced gastric cancer in Part 2.

[10] = test system: SVRbag4 cells; experiment: In vitro cytotoxicity (MTT) in SVRbag4 cells; type: cell-based, mouse; conditions: SVRbag4, 72 hours, Mean ± SD
Method: as §2, §3

[11] = for AUCinf / AUClast / CL/F / Cmax / MRTinf / Vd/F / t1/2 / CLR: in vivo, po
[12] = Paclitaxel pharmacokinetics in dogs after single oral dose with Compound A; type: in vivo, dog
[13] = test system: SVRA221a cells; experiment: In vitro cytotoxicity (MTT) in SVRA221a cells; type: cell-based, mouse; conditions: 72 hours, Mean ± SD
Method: as §2, §3

[14] = Paclitaxel pharmacokinetics in rats after single oral dose with Compound A; type: in vivo, rat
[15] = test system: MS1 cells; experiment: In vitro cytotoxicity (MTT) in MS1 cells; type: cell-based, mouse; conditions: MS1, 72 hours, Mean ± SD
Method: as §2, §3

[16] = test system: tubulin in MS1, SVRA221a, and SVRbag4 cell lines; experiment: Immunofluorescence microscopy of tubulin disruption; type: cell-based, mouse; conditions: SVRbag4 treated with 1-100 nM paclitaxel for 3 hours
Method: Coverslips (22-mm) were pre-coated with rat tail collagen for 1 hour then seeded with cells in 6-well plates for 24 hours before treatment. […] After blocking with 2% BSA in PBS for 30 min, cells were incubated with anti α-tubulin antibody (Sigma 6199) diluted in blocking buffer (2% BSA in PBS) for 1.5 hours at room temperature. Cells were washed three times with PBS and incubated with […] anti-Mouse IgG (Invitrogen) for 1 hours at room temperature. Following three PBS washes, coverslips were mounted on glass slides in ProLong antifade reagent (Invitrogen). Fluorescent images were captured using a Nikon TE2000-E inverted microscope for two independent experiments.

[17] = Fasted, single oral dose paclitaxel 6 mg/kg with Compound A 3 mg/kg
[18] = Fed, single oral dose paclitaxel 6 mg/kg with Compound A 3 mg/kg
[19] = Mus musculus, medium pre-supplemented with 1 μM Compound A
[20] = single oral dose paclitaxel 2 mg/kg with Compound A
[21] = single oral dose paclitaxel 4 mg/kg with Compound A
[22] = single oral dose paclitaxel 6 mg/kg with Compound A
[23] = single oral dose paclitaxel 5 mg/kg with Compound A
[24] = single oral dose paclitaxel 10 mg/kg with Compound A
[25] = single oral dose paclitaxel 20 mg/kg with Compound A
[26] = single oral dose paclitaxel 30 mg/kg with Compound A
[27] = single oral dose paclitaxel 40 mg/kg with Compound A
[28] = single oral dose paclitaxel 50 mg/kg with Compound A

Compound: CC(=O)O[C@H]1C(=O)[C@@]2(C)[C@H]([C@H](OC(=O)c3ccccc3)[C@]3(O)C[C@H](OC(=O)[C@H](O)[C@@H](NC(=O)c4ccccc4)c4ccccc4)C(C)=C1C3(C)C)[C@]1(OC(C)=O)CO[C@@H]1C[C@@H]2O [Paclitaxel, 5,20-Epoxy-1,2,4,7,10-13-hexahydroxytax-11-en-9-one-4,10-diacetate 2-benzoate 13-ester with (2R,3S)—N-benzoyl-3-phenylisoserine]
- Effect: tumor inhibition rate (IR %) [1]: 72.79 IR %
- Effect: tumor regression ([2]; paclitaxel alone 20 mg/kg IV every 4 days for 4 doses, >100% = increase in tumor weight): 163.09% tumor
- Effect: tumor inhibition rate (IR %) ([2]; paclitaxel alone 25 mg/kg IP every 4 days for 4 doses): 65.82 IR %
- Effect: growth delay [3]: 16.3 days
- Effect: growth delay [4]: 43.8 days
- Effect: growth delay [5]: >55.9 days
- Effect: tumor inhibition rate (IR %) [6]: 45.41 IR %
- Emax (% inhibition) [7]: 99 ± 0.10 % inhibition
- GI50 ([7]; Homo sapiens, medium pre-supplemented with 1 μM Compound A): 0.46 ± 0.23 ng/mL (≈ 0.539 nM)
- AUClast [8, 17]: 1599.8 ± 416.5 ng·h/mL
- CL/F [8, 17]: 4.2 ± 1.2 L/h
- Tmax [8, 17]: 0.5 ± 0.0 h
- t1/2 [8, 17]: 9.4 ± 0.3 h
- AUClast [8, 18]: 849.1 ± 119.9 ng·h/mL
- CL/F [8, 18]: 6.4 ± 1.3 L/h
- Cmax [8, 18]: 299.0 ± 54.6 ng/mL
- Tmax [8, 18]: 0.7 ± 0.2 h
- t1/2 [8, 18]: 9.9 ± 2.7 h
- Paclitaxel Cmax and AUC, fasted group as compared to fed group ([8]; orally administered paclitaxel): ~2 fold
- Overall exposure on Day 2, higher than Day 1 ([9]; in vivo, po): 20-30%
- AUC0-24 ([9]; Day 1): 611 to 894 ng·h/mL
- Cmax ([9]; Day 1): 202 to 280 ng/mL
- AUC0-24 ([9]; Day 2): 735 to 1081 ng·h/mL
- Cmax ([9]; Day 2): 159 to 315 ng/mL
- GI50 [10, 19]: 3.9 ± 1 ng/mL (≈ 4.57 nM)
- Emax (% inhibition) [10]: 99 ± 1.4 % inhibition
- MTD ([11]; 24 subjects with advanced solid cancer, oral paclitaxel 60 to 420 mg/m^2 on days 1, 8, 15 of 28-day cycle with Compound A): not reached
- AUCinf ([11]; human, 60 mg/m2): 727.1 ng·h/mL
- AUClast ([11]; human, 60 mg/m2): 584.1 ng·h/mL
- CL/F ([11]; human, 60 mg/m2): 178.4 L/h
- Cmax ([11]; human, 60 mg/m2): 149.6 ng/mL
- MRTinf ([11]; human, 60 mg/m2): 28.6 h
- Vd/F ([11]; human, 60 mg/m2): 9128.7 L
- t1/2 ([11]; human, 60 mg/m2): 32.1 h
- AUCinf ([11]; human, 120 mg/m2): 1840.1 ng·h/mL
- AUClast ([11]; human, 120 mg/m2): 1611.1 ng·h/mL
- CLR ([11]; human, 120 mg/m2): 3.0 L/h
- MRTinf ([11]; human, 120 mg/m2): 17.0 h
- Vd/F ([11]; human, 120 mg/m2): 4036.0 L
- AUCinf ([11]; human, 180 mg/m2): 1985.0 ng·h/mL
- AUClast ([11]; human, 180 mg/m2): 1673.9 ng·h/mL
- CL/F ([11]; human, 180 mg/m2): 173.4 L/h
- CLR ([11]; human, 180 mg/m2): 1.8 L/h
- Cmax ([11]; human, 180 mg/m2): 432.0 ng/mL
- MRTinf ([11]; human, 180 mg/m2): 21.9 h
- Vd/F ([11]; human, 180 mg/m2): 6030.7 L
- t1/2 ([11]; human, 180 mg/m2): 24.4 h
- AUCinf ([11]; human, 240 mg/m2): 2971.2 ng·h/mL
- AUClast ([11]; human, 240 mg/m2): 2547.4 ng·h/mL
- CL/F ([11]; human, 240 mg/m2): 147.6 L/h
- CLR ([11]; human, 240 mg/m2): 2.4 L/h
- Cmax ([11]; human, 240 mg/m2): 509.6 ng/mL
- MRTinf ([11]; human, 240 mg/m2): 23.4 h
- Vd/F ([11]; human, 240 mg/m2): 6011.5 L
- t1/2 ([11]; human, 240 mg/m2): 25.7 h
- AUCinf ([11]; human, 300 mg/m2): 3481.1 ng·h/mL
- AUClast ([11]; human, 300 mg/m2): 3135.0 ng·h/mL
- CLR ([11]; human, 300 mg/m2): 2.0 L/h
- MRTinf ([11]; human, 300 mg/m2): 16.2 h
- Vd/F ([11]; human, 300 mg/m2): 4927.3 L
- AUCinf ([11]; human, 360 mg/m2): 2851.7 ng·h/mL
- AUClast ([11]; human, 360 mg/m2): 2512.1 ng·h/mL
- CL/F ([11]; human, 360 mg/m2): 228.7 L/h
- CLR ([11]; human, 360 mg/m2): 7.3 L/h
- Cmax ([11]; human, 360 mg/m2): 655.0 ng/mL
- MRTinf ([11]; human, 360 mg/m2): 18.7 h
- Vd/F ([11]; human, 360 mg/m2): 6837.8 L
- t1/2 ([11]; human, 360 mg/m2): 20.8 h
- AUCinf ([11]; human, 420 mg/m2): 3731.5 ng·h/mL
- AUClast ([11]; human, 420 mg/m2): 3407.1 ng·h/mL
- CL/F ([11]; human, 420 mg/m2): 244.9 L/h
- CLR ([11]; human, 420 mg/m2): 2.9 L/h
- Cmax ([11]; human, 420 mg/m2): 707.5 ng/mL
- MRTinf ([11]; human, 420 mg/m2): 14.7 h
- Vd/F ([11]; human, 420 mg/m2): 7175.1 L
- t1/2 ([11]; human, 420 mg/m2): 19.9 h
- T1/2 ([11]; human, range over oral paclitaxel doses 60 to 420 mg/m^2 with Compound A): 19.9 to 32.1 h
- AUClast Paclitaxel [12, 20]: 413 ng·h/mL
- Tmax Paclitaxel [12, 20]: 0.5 h
- AUClast Paclitaxel [12, 21]: 1331 ng·h/mL
- Tmax Paclitaxel [12, 21]: 0.7 h
- AUClast Paclitaxel [12, 22]: 2123 ng·h/mL
- Tmax Paclitaxel [12, 22]: 0.5 h
- Emax (% inhibition) [13]: 96 ± 1.1 % inhibition
- GI50 [13, 19]: 1.8 ± 1 ng/mL (≈ 2.11 nM)
- AUClast Paclitaxel [14, 23]: 333 ng·h/mL
- Cmax Paclitaxel [14, 23]: 103 ng/mL
- Tmax Paclitaxel [14, 23]: 0.6 h
- AUClast Paclitaxel [14, 24]: 1027 ng·h/mL
- Cmax Paclitaxel [14, 24]: 356 ng/mL
- Tmax Paclitaxel [14, 24]: 0.7 h
- AUClast Paclitaxel [14, 25]: 3009 ng·h/mL
- Cmax Paclitaxel [14, 25]: 852 ng/mL
- Tmax Paclitaxel [14, 25]: 1.2 h
- AUClast Paclitaxel [14, 26]: 6638 ng·h/mL
- Cmax Paclitaxel [14, 26]: 1761 ng/mL
- Tmax Paclitaxel [14, 26]: 1.2 h
- t1/2 Paclitaxel [14, 26]: 6.0 h
- AUClast Paclitaxel [14, 27]: 11052 ng·h/mL
- Cmax Paclitaxel [14, 27]: 2488 ng/mL
- Tmax Paclitaxel [14, 27]: 1.5 h
- t1/2 Paclitaxel [14, 27]: 5.5 h
- AUClast Paclitaxel [14, 28]: 13124 ng·h/mL
- Cmax Paclitaxel [14, 28]: 3067 ng/mL
- Tmax Paclitaxel [14, 28]: 1.4 h
- t1/2 Paclitaxel [14, 28]: 5.3 h
- Emax (% inhibition) [15]: 93 ± 4.5 % inhibition
- GI50 ([15]; Mus musculus, MS-1, medium pre-supplemented with 1 μM Compound A): 1.8 ± 0.36 ng/mL (≈ 2.11 nM)
- concentration at which condensed and rounded morphology and polymerization of microtubules start [16]: 5-10 nM and 4.2-8.5 ng/mL
